Read-outs that look alike come from different tables or passages of the source.
Key:
[1] = test system: normal PBL peripheral blood lymphoblast; set-up: method as in PMID 11734332; conditions: ref [36]; cited from earlier work
[2] = test system: U87.MG glioblastoma cells; assay: Resazurin reduction cytotoxicity assay; type: cell-based; conditions: Homo sapiens, U-87 MG; U87MG, 72 h incubation
[3] = test system: CEM/ADR5000 cells (multidrug-resistant P-glycoprotein-overexpressing subline); assay: Resazurin reduction cytotoxicity assay; type: cell-based; conditions: for IC50: CEM/ADR5000, 72 h incubation; for Degree of resistance: IC50 in CEM/ADR5000 divided by IC50 in CCRF-CEM
From the text: (§2) Drug-sensitive and drug-resistant cancer cell lines of previously reported origin were used in this study. These included drug-sensitive CCRF-CEM leukemia cells and its multidrug-resistant P-glycoprotein-overexpressing subline CEM/ADR5000 cells [14–16], MDA-MB-231-pcDNA breast cancer cells and their resistant subline MDA-MB-231-BCRP clone 23 cells [17], HCT116 p53^+/+colon cancer cells and their knockout clone HCT116 p53^−/− cells, and U87.MG glioblastoma cells and their resistant subline U87.MGΔEGFR cells [18, 19]. Normal AML12 hepatocytes were used and compared with HepG2 hepatocarcinoma cells [18, 19].
(§3) The Infinite M2000 Pro™ plate reader (Tecan, Crailsheim, Germany) with excitation wavelength of 544 nm and an emission wavelength of 590 nm was used to read the fluorescence after 72 h incubation. IC50 values earlier defined [13] were calculated from a calibration curve by linear regression using Microsoft Excel [24]. The degree of resistance (D.R.) was determined as the IC50 value of the resistant cell line versus that of its sensitive congeners; meanwhile, the selectivity index (S.I.) was the IC50 value in normal AML12 hepatocytes versus that in HepG2 hepatocarcinoma.

[4] = test system: MDA-MB-231-pcDNA breast cancer cells; assay: Resazurin reduction cytotoxicity assay; type: cell-based; conditions: 72 h incubation
U87.MGΔEGFR cells = assay: Resazurin reduction cytotoxicity assay; type: cell-based; conditions: for Degree of resistance: IC50 in U87MG.ΔEGFR divided by IC50 in U87MG; for IC50: U87MG.ΔEGFR, 72 h incubation
From the text: as §2, §3

HEK293 cells = test system: HEK293 cells; set-up: method as in PMID 29867487, PMID 11734332; conditions: lowest of the reported range, ref [34], [36]; cited from earlier work
CCRF-CEM cells [5] = assay: Annexin V/PI staining, apoptosis by flow cytometry; conditions: 24 h, 2 × IC50
Method: The experimental conditions were similar to those earlier reported (24 h incubation; humidified 5% CO2 atmosphere; 37°C) [13]. The BD Accuri C6 Flow Cytometer was then used to analyze apoptosis using fluorescein isothiocyanate (FITC)-conjugated annexin V/PI assay kit (eBioscience™ Annexin V; Invitrogen, San Diego, USA) similarly as reported earlier [13, 22, 23]; early apoptosis for cells stained with only annexin V; late apoptosis or in a necrotic stage for cells stained with both annexin V and propidium iodide [13, 25, 26].

[6] = test system: MDA-MB-231-BCRP clone 23 cells; assay: Resazurin reduction cytotoxicity assay; conditions: for Degree of resistance: IC50 in MDA-MB-231-BCRP divided by IC50 in MDA-MB-231-pcDNA; for IC50: MDA-MB-231/BCRP, 72 h
From the text: as §2, §3

Normal AML12 hepatocytes = assay: Resazurin reduction cytotoxicity assay; type: cell-based; conditions: for Selectivity index: IC50 in normal AML12 hepatocytes divided by IC50 in HepG2; for IC50: Mus musculus, normal AML12 hepatocytes, 72 h incubation
From the text: as §2, §3

CCRF-CEM cells [7] = assay: ROS production, H2DCFH-DA; type: cell-based; conditions: 24 h, 2 × IC50 (11.38 μg/mL crude extract; 17.60 μM compound 1)
Method: The measurement of ROS production using 2′,7′-dichlorodihydrofluorescein diacetate (H2DCFH-DA) (Sigma-Aldrich) was done in CCRF-CEM cells were treated with DCB, compound 1, a solvent control (DMSO), or a positive control, hydrogen peroxide (H2O2) for 24 h, in similar experimental conditions as documented earlier.

[8] = test system: 9 tested cancer cell lines; assay: Resazurin reduction cytotoxicity assay, whole panel; type: cell-based; conditions: for IC50: all tested cancer cell lines, 72 h incubation, read-out: IC50 values over the tested cancer cell lines
From the text: These included drug-sensitive CCRF-CEM leukemia cells and its multidrug-resistant P-glycoprotein-overexpressing subline CEM/ADR5000 cells [14–16], MDA-MB-231-pcDNA breast cancer cells and their resistant subline MDA-MB-231-BCRP clone 23 cells [17], HCT116 p53^+/+colon cancer cells and their knockout clone HCT116 p53^−/− cells, and U87.MG glioblastoma cells and their resistant subline U87.MGΔEGFR cells [18, 19]. Normal AML12 hepatocytes were used and compared with HepG2 hepatocarcinoma cells [18, 19].
as §3

CCRF-CEM cells [9] = assay: Mitochondrial membrane potential (MMP), JC-1 staining; type: cell-based; conditions: 24 h
Method: The mitochondrial membrane potential (MMP) of CCRF-CEM cells was analyzed after 24 h treatment with DCB, compound 1, or valinomycin (mitochondrial gradient dissipation substance or positive control). The 5,5′,6,6′-tetrachloro-1,1′,3,3′-tetraethylbenzimidazolyl carbocyanine iodide (JC-1; Biomol, Hamburg, Germany) staining was used to measure the MMP similarly as previously reported.

caspases 3/7 = assay: Caspase-Glo 3/7 assay; type: cell-based; conditions: CCRF-CEM, 6 h, optimal effects at 8.8 μM
Method: (§1) After 6 h treatment of CCRF-CEM cells with DCB and triterpenoid 1 for 6 h, caspases activities were evaluated with Caspase-Glo 3/7, 8, and 9 assay kits (Promega, Mannheim, Germany) similarly as previously reported.

[10] = test system: HCT116 p53+/+ colon cancer cells; assay: Resazurin reduction cytotoxicity assay; type: cell-based
HCT116 p53-/- cells = assay: Resazurin reduction cytotoxicity assay; type: cell-based; conditions: for IC50: Homo sapiens, HCT-116, HCT116(p53-/-), 72 h incubation; for Degree of resistance: IC50 in HCT116 (p53-/-) divided by IC50 in HCT116 (p53+/+)
From the text: as §2, §3

CCRF-CEM cells [11] = assay: Cell cycle analysis by flow cytometry (PI); type: cell-based; conditions: 24 h
Method: Aliquots of 1×10^6 CCRF-CEM cells were treated with the studied samples (DCB and compound 1), the reference drug (doxorubicin), or the solvent control (DMSO) at various concentrations. […] The BD Accuri C6 Flow Cytometer (BD Biosciences, Heidelberg, Germany) was used to measure the propidium iodide (PI) fluorescence of individual nuclei. Assays were repeated at least three times and in triplicate.

[12] = test system: HepG2 hepatocarcinoma cells; assay: Resazurin reduction cytotoxicity assay; type: cell-based; conditions: Homo sapiens; HepG2, 72 h incubation
Method: as §3

CCRF-CEM leukemia cells = assay: Resazurin reduction cytotoxicity assay; type: cell-based; conditions: 72 h incubation
Method: as §3

CCRF-CEM cells [13] = test system: CCRF-CEM cells; set-up: method as in PMID 29867487, PMID 11734332; conditions: highest of the reported range, ref [34], [36]; cited from earlier work
caspase 8 = assay: Caspase-Glo 8 assay; type: cell-based; conditions: CCRF-CEM, 6 h, optimal effects at 8.8 μM
Method: as §1

[14] = test system: CEM/ADR5000 leukemia cells; set-up: method as in PMID 29867487; conditions: CEM/ADR5000 compared to CCRF-CEM; ref [34]; cited from earlier work
caspase 9 = assay: Caspase-Glo 9 assay; type: cell-based; conditions: CCRF-CEM, 6 h, optimal effects at 8.8 μM
Method: as §1

[15] = Homo sapiens, HCT-116, 72 h, 72 h incubation

## C=C(C)[C@@H]1CC[C@]2(C(=O)O)CC[C@]3(C)[C@H](CC[C@@H]4[C@@]5(C)CC[C@H](O)C(C)(C)[C@@H]5CC[C@]43C)[C@@H]12 [Compound 1, betulinic acid]
[1]
  Cytotoxicity towards normal cells: low cytotoxicity
[2]
  IC50: 24.9 ± 0.33 µM
[3]
  IC50: 7.65 ± 1.46 µM
  Degree of resistance: 0.87
[3]; Homo sapiens, ADR5000, 72 h
  IC50: < 10 µM
[4]
  IC50: 38.8 ± 0.94 µM
U87.MGΔEGFR cells
  Degree of resistance: 0.56
  IC50: 13.9 ± 1.06 µM
HEK293 cells
  IC50: 15.1 µM
CCRF-CEM cells [5]
  Q9-LR early apoptotic cells annexin (+)/PI (-): 51.0%
  Q9-UL annexin V (-)/PI (+) cells (necrosis): 5.1%
[6]
  Degree of resistance: 0.64
  IC50: 24.9 ± 1.2 µM
Normal AML12 hepatocytes
  Selectivity index: > 2.13
  IC50: > 93.9 µM
CCRF-CEM cells [7]
  ROS production, percentage: 53.30%
[8]; 72 h
  IC50: < 50 µM
[8]; all resistant cell lines compared to their sensitive counterparts
  Degree of resistance (D.R.), all resistant cell lines: below 1
CCRF-CEM cells [9]; 1/2 × IC50
  Q1 intact cells: 83.0%
  Q2 loss of MMP: 1.28%
  Q3 ruptured cell membrane: 0.291%
  Q4 ruptured cell membrane: 15.4%
CCRF-CEM cells [9]; 1/4 × IC50
  Q1 intact cells: 88.0%
  Q2 loss of MMP: 1.43%
  Q3 ruptured cell membrane: 0.057%
  Q4 ruptured cell membrane: 10.6%
CCRF-CEM cells [9]; 2 × IC50
  Q1 intact cells: 42.5%
  Q2 loss of MMP: 57.5%
  Q3 ruptured cell membrane: 0.00%
  Q4 ruptured cell membrane: 0.00%
CCRF-CEM cells [9]; IC50
  Q1 intact cells: 51.8%
  Q2 loss of MMP: 48.2%
  Q3 ruptured cell membrane: 0.00%
  Q4 ruptured cell membrane: 0.00%
Caspases 3/7
  Increase in the activity of caspases 3/7: 3.19 fold
[10]; [15]
  IC50: 31.5 ± 0.49 µM
HCT116 p53-/- cells
  IC50: 17.1 ± 0.7 µM
  Degree of resistance: 0.54
CCRF-CEM cells [11]; 1/4 × IC50
  Cell percentage Sub-G0/G1: 15.30%
CCRF-CEM cells [11]; 2 × IC50
  Cell percentage Sub-G0/G1: 48.40%
[12]
  IC50: 44.2 ± 3.15 µM
CCRF-CEM leukemia cells
  IC50: 8.8 ± 0.35 µM
CCRF-CEM leukemia cells; Homo sapiens, 72 h
  IC50: < 10 µM
CCRF-CEM cells [13]
  IC50: 29.4 µM
Caspase 8
  Increase in the activity of caspase 8: 2.91 fold
[14]
  Sensitivity of resistant cells compared to sensitive congener: hypersensitivity
Caspase 9
  Increase in the activity of caspase 9: 2.37 fold

## CCCCCCCCCCCCCCCCCCCCCCCCCC(=O)OCC(O)CO (stereo not shown) [Compound 2, glyceryl-1-hexacosanoate]
[2]
  IC50: > 100 µM
[3]; Homo sapiens
  IC50: > 100 µM
[4]
  IC50: > 100 µM
U87.MGΔEGFR cells
  IC50: > 100 µM
[6]
  IC50: > 100 µM
Normal AML12 hepatocytes
  IC50: > 100 µM
[8]; 72 h
  IC50: > 100 µM
[10]; [15]
  IC50: > 100 µM
HCT116 p53-/- cells
  IC50: > 100 µM
[12]
  IC50: > 100 µM
CCRF-CEM leukemia cells; Homo sapiens
  IC50: > 100 µM

## O=c1cc(-c2ccc(O)cc2)oc2cc(O)ccc12 [Compound 3, 7-hydroxy-2-(4-hydroxyphenyl)-4H-chromen-4-one]
[2]
  IC50: 61.3 ± 5.87 µM
[3]; Homo sapiens
  IC50: 124 ± 20.2 µM
[3]
  Degree of resistance: 3.98
[4]
  IC50: 75.5 ± 5.16 µM
U87.MGΔEGFR cells
  Degree of resistance: 0.88
  IC50: 53.8 ± 6.1 µM
[6]
  Degree of resistance: 1.06
  IC50: 80 ± 1.61 µM
Normal AML12 hepatocytes
  IC50: > 100 µM
[8]
  IC50: > 10 µM
[10]; Homo sapiens, HCT-116, 72 h incubation
  IC50: > 100 µM
HCT116 p53-/- cells
  IC50: 66.3 ± 5.67 µM
  Degree of resistance: < 0.66
[12]
  IC50: 48.6 ± 7.09 µM
CCRF-CEM leukemia cells; Homo sapiens
  IC50: 31.2 ± 0.98 µM

## O=c1cc(-c2ccc(O)cc2)oc2ccc(O)cc12 [Compound 4, 6-hydroxy-2-(4-hydroxyphenyl)-4H-chromen-4-one]
[2]
  IC50: 43.9 ± 8.19 µM
[3]; Homo sapiens
  IC50: 38.8 ± 2.13 µM
[3]
  Degree of resistance: 2.05
[4]
  IC50: 45.8 ± 4.76 µM
U87.MGΔEGFR cells
  Degree of resistance: 1.02
  IC50: 44.6 ± 2.56 µM
[6]
  Degree of resistance: 0.88
  IC50: 40.5 ± 3.9 µM
Normal AML12 hepatocytes
  Selectivity index: 1.59
  IC50: 53.9 ± 11.2 µM
[10]; 72 h incubation
  IC50: 48.9 ± 5.35 µM
[10]; [15]
  IC50: 88.9 µM
HCT116 p53-/- cells
  IC50: 48.6 ± 3.82 µM
  Degree of resistance: 1.00
[12]
  IC50: 34 ± 2.95 µM
CCRF-CEM leukemia cells; Homo sapiens
  IC50: 18.9 ± 1.54 µM

## COc1cccc2c1C(=O)c1c(O)c3c(c(O)c1C2=O)C[C@@](O)(C(=O)CO)C[C@@H]3O[C@H]1C[C@H](N)[C@H](O)[C@H](C)O1 [Doxorubicin, doxorubicin, reference compound]
[2]
  IC50: 0.26 ± 0.03 µM
[3]
  Degree of resistance: 6,683.00
[4]
  IC50: 0.13 ± 0.01 µM
U87.MGΔEGFR cells
  Degree of resistance: 3.79
  IC50: 0.98 ± 0.07 µM
[6]
  Degree of resistance: 6.14
  IC50: 0.79 ± 0.08 µM
Normal AML12 hepatocytes
  IC50: 52.9 ± 4.09 µM
HCT116 p53-/- cells
  IC50: 1.78 ± 0.08 µM
  Degree of resistance: 3.73
CCRF-CEM cells [11]
  Cell cycle arrest (phase): between S and G2/M
[12]
  IC50: 4.56 ± 0.48 µM
CCRF-CEM leukemia cells; Homo sapiens
  IC50: 0.02 µM

## CC(C)[C@@H]1NC(=O)[C@H](C)OC(=O)[C@@H](C(C)C)NC(=O)[C@@H](C(C)C)OC(=O)[C@H](C(C)C)NC(=O)[C@H](C)OC(=O)[C@@H](C(C)C)NC(=O)[C@@H](C(C)C)OC(=O)[C@H](C(C)C)NC(=O)[C@H](C)OC(=O)[C@@H](C(C)C)NC(=O)[C@@H](C(C)C)OC1=O [Valinomycin, valinomycin, reference compound]
CCRF-CEM cells [9]; 10 μM
  Q1 intact cells: 54.1%
  Q2 loss of MMP: 45.9%
  Q3 ruptured cell membrane: 0.00%
  Q4 ruptured cell membrane: 0.00%

From PMC6644236, “Cytotoxicity of Crude Extract and Isolated Constituents of the Dichrostachys cinerea Bark towards Multifactorial Drug-Resistant Cancer Cells” (Evidence-based Complementary and Alternative Medicine : eCAM, 2019)
